# Assays:
# Assay type in all cases: cell-based
# [1] = tested on: primary culture of human lymphocytes; experiment: Interferon-inducing activity in primary culture of human lymphocytes (immunoenzyme IFN determination); parameters: unit of the concentration uncertain; conditions: 24 hours of incubation
# Procedure: Interferon synthesis induction by the claimed preparations was conducted on a primary culture of human lymphocytes (the cells in the human body are the main producers of interferon). To obtain a culture of the lymphocytes we used fresh blood (12 hours after collection) from healthy […] (not from the second group).
# The lymphocyte concentration was determined after staining with methyl blue and the number of cells in the Goryaev chamber was calculated. […] The final concentration of the lymphocytes in the induction mixture was 3·10^6 cells/ml. The following controls were processed in parallel with the test samples:
# The control and the experimental samples were incubated for 24 hours at 37° C. Following incubation the samples were centrifuged at 2000 g to settle out the cellular elements and the INF-containing supernatant was taken from the samples and analyzed for INF content. The cell residue was resuspended in the same volume of nutrient medium, stained with a vital dye—trypan blue—and the number of cells in the Goryaev chamber was calculated (as described above) to determine the cytotoxic activity of the preparations.
# For the quantitative determination of INF in the control and experimental samples we used the ProCon IF2 Plus immunoenzyme test system sold by TOO Proteinovyi Kontur. To determine the quantity of interferon s in the sample we used a solid-phase immunoenzyme method utilizing horseradish peroxidase as the enzyme indicator. The activity of the bound peroxidase was measured using an automated photometer at a wavelength of 450 nm for the microplanchets with a microprocessor. […] On the basis of the results obtained we plotted a calibration curve that allowed us to obtain data expressed in International Units (IU) from the microprocessor of the automated photometer. The results of the analysis are expressed in IU of activity of INF per ml in the given induction system containing 3·10^6 lymphocytes/ml. Every experimental and control point was studied in 4 parallel runs.
# The results obtained were analyzed statistically using the t-test and the confidence interval at p=0.05 was calculated. Analysis of the convergence of the results of the parallel tests were performed.
# C. trachomatis D323 = experiment: Activity on Chlamydia trachomatis in McCoy and L929 cell cultures; conditions: 48 hours; for number of cells in 100 fields (unchanged cells): cell control 8000, infected cell control 6400
# Procedure: The antimicrobial activity of the claimed compounds was studied on C. trachomatis […]-a standard strain from the collection of the Department of Microbiology of the Pavlov St.-Petersburg State University. This strain was isolated from a patient with […] urethritis. […] In the work reported here we used McCoy and L929 cell cultures obtained from the Institute of Cytology of the Russian Academy of Sciences. The cells were grown in flasks of neutral glass in RPMI-1640 medium with an addition of 10% fetal calf serum. The experiment was placed in glass (toxicity-free) flat-bottomed flasks and covered with glass. The cells were introduced into the medium in a final concentration of 1·10 cells/ml. […] The sample was centrifuged at 2400 g for 60 min at room temperature and incubated at 37° C. for 2 hours. […] A parallel series of samples was run using medium without the cycloheximide in order to avoid its influence on the test substances. The samples were incubated for 48 hours in a CO2 incubator. […] The results were evaluated from the detection of chlamydia cytoplasmatic inclusion by an immunoenzyme method (MicroTrac Chlamydia trachomatis Direct Specimen Test) and from chlamydia antigens using CylaMonoScreen (Russian-British Joint Venture, 66 Regent's Park Road, London NW 1 7SX).
# Vero cell culture = experiment: Control of compounds (toxicity of compounds) in the herpes experiment; conditions: 100 mg/l; Vero cells
# Procedure: (§1) The antiviral activity was studied relative to the virus herpes simplex type I (VPG-I/Leningrad/248/88) by a standard method. The virus was grown on a reinoculated Vero cell culture obtained from the cell culture bank of the Institute of Cytology of the Russian Academy of Sciences.
# To cells grown on medium RPMI-1640 with 10% calf serum and placed in the wells of a 96-well plate, the virus was added to give a final concentration of 10 particles/ml and […] We used 5 individual wells for every concentration tested. The plate was incubated for 60 min at 38° C. in a CO2 incubator. After incubation the virus was removed and new medium was added that contained the claimed compounds in the test concentrations.
# 4. Control of compounds (toxicity of compounds).
# [2] = tested on: McCoy and L929 cell cultures; experiment: Control of the test compounds on toxicity relative to cell cultures in the chlamydia experiment; conditions: 100 mg/l
# Procedure: In the work reported here we used McCoy and L929 cell cultures obtained from the Institute of Cytology of the Russian Academy of Sciences. The cells were grown in flasks of neutral glass in RPMI-1640 medium with an addition of 10% fetal calf serum. The experiment was placed in glass (toxicity-free) flat-bottomed flasks and covered with glass. The cells were introduced into the medium in a final concentration of 1·10 cells/ml. After a monolayer was obtained, standard infectious doses of chlamydia that had been maintained in a frozen state at −70° C. were added to test tubes. […] The sample was centrifuged at 2400 g for 60 min at room temperature and incubated at 37° C. for 2 hours. […] A parallel series of samples was run using medium without the cycloheximide in order to avoid its influence on the test substances. The samples were incubated for 48 hours in a CO2 incubator.
# [3] = tested on: herpes simplex type I (VPG-I/Leningrad/248/88); experiment: Activity on herpes simplex virus: cytopathic action of the virus on Vero cells; conditions: 100 mg/l, 36 hours; for number of cells in 100 fields (unchanged cells): cell control 12000
# Procedure: as §1
# To cells grown on medium RPMI-1640 with 10% calf serum and placed in the wells of a 96-well plate, the virus was added to give a final concentration of 10 particles/ml and the claimed compounds dissolved in DMSO were added to give a final concentrations of 100, 10, and 1 mg/l. We used 5 individual wells for every concentration tested. The plate was incubated for 60 min at 38° C. in a CO2 incubator. After incubation the virus was removed and new medium was added that contained the claimed compounds in the test concentrations.
# The results were evaluated according to the existence of a cytopathic action of the virus on the cells after 36 hours of incubation at 38° C. in the CO2 incubator.
# The following controls were used in the experiment:
# 3. Control of antiviral activity of an antiviral preparation—acylcovir.
# To access the cytopathic effect of the virus, we counted the number of unchanged cells in 100 fields formed by a specialized grid on the eyepiece of the inversion microscope.
Structure (SMILES),Interferon-inducing activity of the drug; content of INF in induction mixture ([1]; 1 (unit uncertain)) [IU/3 · 10^4 lymp/ml],Interferon-inducing activity of the drug; content of INF in induction mixture ([1]; 10 (unit uncertain)) [IU/3 · 10^4 lymp/ml],Interferon-inducing activity of the drug; content of INF in induction mixture ([1]; 100 (unit uncertain)) [IU/3 · 10^4 lymp/ml],percent protection of the cells against infection (C. trachomatis D323; 30 mg/l) [%],number of cells in 100 fields (unchanged cells) (C. trachomatis D323; 30 mg/l),cytotoxicity of compound (Vero cell culture),cytotoxicity of compound [2],percent protection of the cells against the virus compared to the cell culture control [3] [%],number of cells in 100 fields (unchanged cells) [3],percent protection of the cells against infection (C. trachomatis D323; 100 mg/l) [%],number of cells in 100 fields (unchanged cells) (C. trachomatis D323; 100 mg/l)
Oc1nc(O)c2c(n1)Oc1nc(O)nc(O)c1C2 [IV],3.8 ± 1.5,29.9 ± 2.0,74.0 ± 1.8,40,7040,Cytotoxic,cytotoxic,–,–,–,–
"O=[N+]([O-])c1ccc(C2c3c(O)nc(S)nc3Oc3nc(S)nc(O)c32)cc1 [IX, 4-6-Dihydroxy-2,8-dimercapto-5-(p-nitrophenyl)-5H-pyrano[2,3-d:6,5-d′]dipyrimidine]",6.8 ± 2.0,28.0 ± 2.5,64.0 ± 1.8,–,–,–,–,40,4800,60,7360
"COc1nc(O)nc2c1C(c1ccc([N+](=O)[O-])cc1)c1c(OC)nc(O)nc1O2 [V, 2,8-Dihydroxy-4,6-dimethoxy-5-(4-nitrophenyl)-5H-pyrano[2,3-d:6,5-d′]dipyrimidine]",10.5 ± 2.5,50.6 ± 1.8,108.9 ± 2.0,–,–,–,cytotoxic,50,6000,–,–
Oc1nc(O)c2c(n1)Oc1nc(O)nc(O)c1C2c1ccc(Br)cc1 [VII],5.6 ± 1.6,10.6 ± 1.8,22.2 ± 1.4,–,–,–,cytotoxic,30,3600,–,–
Oc1nc(O)c2c(n1)Oc1nc(O)nc(O)c1C2c1ccc(Cl)cc1 [VI],6.5 ± 1.4,36.9 ± 1.2,92.2 ± 2.1,–,–,–,–,50,6000,15,6560

# Reference: patent publication US6340755B1, “5H-Pyrano[2,3-d: 6,5-d']dipyrimidine derivatives having an antibacterial, antiviral and immuno-modulating activity” (Natural Drug Sciences LLC, priority 2000, dated 2002)
